23 molecules from patent US7705053B2, “Benzamide derivative” (Chugai Seiyaku Kabushiki Kaisha, priority 2003, dated 2010) can be followed below.

Series [1] concerns human lung carcinoma cell line Calu-6. Description: Antitumor test (Calu-6 xenograft). The class given is in vivo, Balb/c nude mice. As to conditions: 600 mg/kg, orally once daily for 11 days, mice. As to the method: (§1) A cell suspension of human lung carcinoma cell line Calu-6 was prepared using Hanks' balanced salt solution, and 5.0×10^6 of the cells were implanted subcutaneously in the flank region of female Balb/c nude mice. When the volume of the tumor reached 200 to 250 mm^3, the test compound was orally administered once daily for 11 days. The tumor volume was calculated from the equation π/6×(long diameter×short diameter×thickness). The tumor growth inhibition rate was calculated from changes in the tumor volume in the test compound treatment group relative to changes in the tumor volume in the control group.
(§2) The results of the antitumor test of compound 1-1-1 and compound 2-1-1, as representative examples of the compounds of the present invention, are shown in FIGS. 1-(A) and 1-(B) and 2-(A) and 2-(B).

Series [2] concerns Human lung carcinoma cell line Calu-6. Description: Cell proliferation assay (Calu-6). As to conditions: Calu-6, 72 hours, WST-1, read-out: 50% growth inhibition concentration (IC50 value) Calu-6. The class given is cell-based. Here is the method: (§3) The test compound was serially diluted with DMSO, and then diluted 1:50 with a Ca^2+,Mg^2+-free phosphate-buffered physiological saline. The resulting dilution (10 μl) was dispensed into a 96-well plate. Human umbilical vein endothelial cells (HUVEC, purchased from Clonetics) were suspended in PRMI 1640 medium supplemented with 10% bovine fetal serum, 30 μg/mL vascular endothelial cell growth supplement, and 50 μg/mL heparin. Human lung carcinoma cell line Calu-6 was suspended in MEM medium supplemented with 10% bovine fetal serum, 0.1 mM nonessential amino acid, and 1 mM sodium pyruvate. Each cell suspension (190 μL) was dispensed into the plate containing the test compound such that the cell count per well was 3,000 cells. The plate was incubated in a CO2 incubator (37° C., 5% CO2). After 72 hours, 20 μL WST-1 (produced by Roche Diagnostics) was added to each well and, after 2 hours of incubation, the absorbance at 450 nm (reference wavelength: 650 nm) was measured. The 50% growth inhibition concentration (IC50 value) of the test compound was calculated from the inhibition rate obtained when the test compound was added, in comparison with the reference value obtained when the test compound was not added.
(§4) The IC50 values, for HUVEC and Calu-6, of representative examples of the compounds of the present invention are shown in Table 1.
On the technique in general: Formazan colour is commonly taken as a measure of viable cells.

A short description of series [3]: Body weight and toxicity findings in the antitumor test. The class given is in vivo. As to conditions: 600 mg/kg, orally once daily for 11 days. Here is the method:
as §1, §2

Series [4] relates to blood vessels in the tumor tissue (Calu-6 xenograft). Description: Measurement of the number of blood vessels in the tumor. The class given is in vivo, Balb/c nude mice. As to conditions: 600 mg/kg, orally once daily for 11 days, mice, relative to control group. From the text: Measurement of the Number of Blood Vessels in the Tumor
5.0×10^6 Cells of human lung carcinoma cell line Calu-6 were implanted subcutaneously in the flank region of female Balb/c nude mice. When the volume of tumor reached 200 to 250 mm^3, the test compound was orally administered once daily for 11 days. Twenty-four hours after the final administration, xenograft tissue was removed from the mice, and a middle portion of the long diameter of the tumor was embedded, as a block 2 to 3 mm thick, in O.C.T. Compound, and preserved as a frozen tissue specimen. Frozen sections were prepared, and blood vessels in the tumor tissue were stained by an immunohistological method using anti-mouse CD31 antibody. The stained tissue was photographed under a microscope, and the images were stored as an image file. The number of the stained blood vessels was measured by Image Pro (Promega). The decrease rate of blood vessel density was calculated as a decrease rate relative to the blood vessel density in the control group.
The decrease rates of the blood vessel density in the tumor tissue following treatment with 600 mg/kg of compound 1-1-1 and compound 2-1-1, as representative examples of the compounds of the present invention, are shown in Table 3.

The test system of series [5] is Human umbilical vein endothelial cells (HUVEC). Description: Cell proliferation assay (HUVEC). The settings on record: 72 hours, WST-1, read-out: 50% growth inhibition concentration (IC50 value) HUVEC. The class given is cell-based. As to the method:
as §3, §4

The test system of series [6] is HUVEC. Briefly: Tube formation assay. The settings on record: Homo sapiens, 264 h, 11 days of incubation, CD31 staining, read-out: capillary-like tube formation inhibition rates (%). In kind it is cell-based. Here is the method:
An angiogenesis measurement kit (produced by KURABO) was charged with the test compound at final concentration of 20 μM, and incubated in a CO2 incubator (37° C., 5%). After 11 days of incubation, capillary-like tubes formed were fixed with 70% ethanol and visualized with a CD31 staining kit (produced by KURABO). Under a microscope, stain images of the wells were photographed, stored as an image file, and measured for the area of capillary-like tube formation by use of angiogenesis quantitative determination software of KURABO. The inhibition rates (%) of the test compound-charged wells were calculated, with the control taken as 100%.
The capillary-like tube formation inhibiting rates at 20 μM, against HUVEC, of representative examples of the compounds of the present invention are shown in Table 2.

A value given as a limit tells only on which side of the number the result lay.

By inhibition is commonly meant the share of the control response that was lost under treatment. For `COc1ccc(C(N)=O)cc1C(=O)Nc1ccc(Cl)cc1` [Compound 1-1-1, 3-N-(4-chlorophenyl)-4-methoxyisophthalamide], in series [1], the “tumor growth inhibition rates (TGI)” value is 82%. For the same molecule, in series [2], the IC50 is over 100 µM. In addition, in series [3], the “body weights of the mice” value was “no decreases in the body weights of the mice were observed” and the findings of toxicity result is listed as “no findings of toxicity observed”. In addition, in series [4], the “Decrease (%) in intratumor blood vessel density” value was 44%. Besides, the IC50 in series [5] worked out at 2270 nM. Also, the inhibition at 20 µM in series [6] came out at 43%.
Consider `COc1ccc(C(N)=O)cc1C(=O)Nc1ccc(OC(F)(F)F)cc1` [Compound 1-2-1, 3-N-(4-trifluoromethoxyphenyl)-4-methoxyisophthalamide], for which the results for the IC50 in series [2] and in series [5] were over 100 µM and 2400 nM, respectively. The inhibition at 20 µM in series [6] stood at 68%.
Regarding `COc1ccc(C(N)=O)cc1C(=O)Nc1ccc(Br)cc1F` [Compound 1-3-1, 3-N-(4-bromo-2-fluorophenyl)-4-methoxy-isophthalamide], the IC50 in series [2] was over 50 µM; in series [5], 190 nM.
Taken in the same sequence, the figures for `COc1ccc(C(N)=O)cc1C(=O)Nc1cccc(Cl)c1Cl` [Compound 1-3-2, 3-N-(2,3-dichlorophenyl)-4-methoxyisophthalamide] were over 50 µM and 150 nM.
With `COc1ccc(C(N)=O)cc1C(=O)Nc1ccccc1OC(F)(F)F` [Compound 1-3-5, 4-methoxy-3-N-(2-trifluoromethoxyphenyl)-isophthalamide], the IC50 was over 50 µM in series [2] and 140 nM in series [5]. For the same molecule, the inhibition at 20 µM in series [6] is 91%.
Taken in the same sequence, the figures for `COc1ccc(C(N)=O)cc1C(=O)Nc1cccc2c1CCCC2` [Compound 1-3-6, 4-methoxy-3-N-(5,6,7,8-tetrahydronaphthalen-1-yl)isophthalamide] were over 50 µM, 240 nM and 46%.
Taken in the same sequence, the figures for `COc1ccc(C(N)=O)cc1C(=O)Nc1ccccc1Cl` [Compound 1-3-7, 3-N-(2-chlorophenyl)-4-methoxyisophthalamide] were over 50 µM, 280 nM and 67%.
`COc1ccc(C(N)=O)cc1C(=O)Nc1cccc(C(F)(F)F)c1F` [Compound 1-3-8, 3-N-(2-fluoro-3-trifluoromethylphenyl)-4-methoxyisophthalamide]: the IC50 in series [2] was over 50 µM; in series [5], 350 nM.
As for `COc1ccccc1NC(=O)c1cc(C(N)=O)ccc1OC` [Compound 1-3-10, 4-methoxy-3-N-(2-methoxyphenyl)isophthalamide], the values for the IC50 in series [2] and in series [5] were over 50 µM and 760 nM, respectively. In series [6], the inhibition at 20 µM stood at 46%.
Taken in the same sequence, the figures for `COc1ccc(C(N)=O)cc1C(=O)Nc1ccccc1F` [Compound 1-3-12, 3-N-(2-fluorophenyl)-4-methoxyisophthalamide] were over 50 µM, 2540 nM and 27%.
Turning to `COc1ccc(C(N)=O)cc1C(=O)Nc1cc(C(F)(F)F)ccc1Cl` [Compound 1-3-16, 3-N-(2-chloro-5-trifluoromethylphenyl)-4-methoxyisophthalamide], the IC50 in series [2] was over 50 µM; in series [5], 4600 nM. Further, the inhibition at 20 µM in series [6] is 80%.
With `COc1ccc(C(N)=O)cc1C(=O)Nc1cc(C)c(F)cc1Cl` [Compound 1-3-17, 3-N-(2-chloro-4-fluoro-5-methylphenyl)-4-methoxyisophthalamide], the IC50 in series [2] was over 25 µM; in series [5], 1200 nM. For the same molecule, the inhibition at 20 µM in series [6] worked out at 80%.
Taken in the same sequence, the figures for `COc1cc(NC(=O)c2cc(C(N)=O)ccc2OC)cc(OC)c1` [Compound 1-3-18, 3-N-(3,5-dimethoxyphenyl)-4-methoxyisophthalamide] were over 50 µM, 1250 nM and 29%.
With `COc1ccc(C(N)=O)cc1C(=O)Nc1ccc(C(F)(F)F)cc1` [Compound 1-3-21, 4-methoxy-3-N-(4-trifluoromethylphenyl)isophthalamide], the IC50 in series [2] was over 50 µM; in series [5] it was 5100 nM. Further, the inhibition at 20 µM in series [6] was 71%.
Taken in the same sequence, the figures for `COc1ccc(C(N)=O)cc1C(=O)Nc1ccccc1C` [Compound 1-3-23, 4-methoxy3-N-o-tolylisophthalamide] were over 50 µM, 2850 nM and 27%.
`COc1ccc(C(N)=O)cc1C(=O)Nc1ccc(F)cc1F` [Compound 1-3-24, 3-N-(2,4-difluorophenyl)-4-methoxyisophthalamide]: the values for the IC50 in series [2] and in series [5] were over 50 µM and 5190 nM, respectively. In series [6], the inhibition at 20 µM was determined as 28%.
Consider `COc1ccc(C(N)=O)cc1C(=O)Nc1cccc2ncccc12` [Compound 1-3-39, 4-methoxy-3-N-quinolin-5-yl-isophthalamide], for which the IC50 in series [2] is over 25 µM; in series [5] it was 2360 nM. Moreover, in series [6], the inhibition at 20 µM is 20%.
Taken in the same sequence, the figures for `COc1ccc(C(N)=O)cc1C(=O)Nc1ccc(Br)cc1Cl` [Compound 1-3-41, 3-N-(4-bromo-2-chlorophenyl)-4-methoxyisophthalamide] were over 50 µM, 40 nM and 82%.
Taken in the same sequence, the figures for `COc1ccc(C(N)=O)cc1C(=O)Nc1ccc(Br)cc1Br` [Compound 1-3-45, 3-N-(2,4-dibromophenyl)-4-methoxyisophthalamide] were over 50 µM, 50 nM and 31%.
With `COc1ccc(C(N)=O)cc1/C=C/c1ccc(OC(F)(F)F)cc1` [Compound 2-1-1, 4-methoxy-3-[(E)-2-(4-trifluoromethoxyphenyl)vinyl]benzamide], in series [1], the “tumor growth inhibition rates (TGI)” value came to 75%. In addition, in series [2], the IC50 is over 100 µM. In series [3], the “body weights of the mice” value is recorded as “no decreases in the body weights of the mice were observed” and the findings of toxicity result is on record as “no findings of toxicity observed”. Moreover, the “Decrease (%) in intratumor blood vessel density” value in series [4] amounted to 37%. Further, the IC50 in series [5] came to 170 nM. For the same molecule, the inhibition at 20 µM in series [6] is 93%.
Turning to `COc1ccc(C(=O)NC2CCCC2)cc1/C=C/c1ccc(OC(F)(F)F)cc1` [Compound 2-2-1, N-cyclopentyl-4-methoxy-3-[(E)-2-(4-trifluoromethoxy-phenyl)vinyl]benzamide], the IC50 in series [2] is over 50 µM; in series [5], 3350 nM. In series [6], the inhibition at 20 µM amounted to 60%.
Take `CNC(=O)c1ccc(OC)c(/C=C/c2ccc(OC(F)(F)F)cc2)c1` [Compound 2-2-2, 4-methoxy-N-methyl-3-[(E)-2-(4-trifluoromethoxyphenyl)-vinyl]-benzamide]: the IC50 in series [2] was over 50 µM; in series [5], 2270 nM. Further, the inhibition at 20 µM in series [6] turned out to be 77%.
Taken in the same sequence, the figures for `CCNC(=O)c1ccc(OC)c(/C=C/c2ccc(Cl)cc2)c1` [Compound 2-2-9, 3-[(E)-2-(4-chlorophenyl)-vinyl]-N-ethyl-4-methoxy-benzamide] were over 25 µM, 1410 nM and 79%.
